# Patent US8324261B2, “Histidine derivatives” (Nippon Zoki Pharmaceutical Co., Ltd., priority 2007, dated 2012)
# Like-named read-outs stand apart in the source and are kept apart here.
# How the values were obtained:
# [1] = Test of kinetics in blood of rats; assay type: in vivo
# Experimental: Each of the compound of the present invention and the carboxylic acid type A thereof was dissolved in DMSO, diluted with water. A sample solution (1% DMSO solution) made into 2 mg/mL was orally administered in a single dose to the fasted Wistar strain SPF male rats of seven weeks age using a stomach tube (10 mg/5 mL/kg). At the stages of 0.25, 0.5, 1, 2, 4 and 8 hour(s) after the administration, about 150 μL of the blood was collected from tail vein using a capillary to which heparin was added and said capillary was centrifuged to collect the plasma. Protein was removed from the plasma sample and the supernatant liquid was diluted to prepare each sample solution for the measurement.
# [2] = tested on: SART stressed mouse; experiment: Test for analgesic effect (1): SART stressed mouse, modified Randall-Selitto tail pressure method; assay type: in vivo, mice; conditions: for Analgesic coefficient: 25 ng per mouse into the lateral ventricle, 30 minutes after administration, pain threshold of test group divided by that of SART control group, 1.0 = no effect
# [3] = tested on: Chung model rat; experiment: Test for analgesic effect (2)/(3): Chung model rat, mechanical allodynia by von Frey filament; assay type: in vivo, rats
# Experimental: A test for analgesic effect was conducted using a Chung model rat which is a neuropathic pain model. As to the test animal, male rats of Wistar strain of nine weeks age were used and model rats were prepared in accordance with the method of Kim and Chung (Pain, vol. 50, pages 355 to 363, 1992). Thus, under anesthetization with pentobarbital (40 mg/kg, intraperitoneal administration), rat L5 spinal nerve was exposed and L5 dorsal root ganglion periphery side was strongly ligated using 5-0 silk yarn. The animals were placed in a transparent acrylate cage whose bottom was made of wire net, a 50% reaction threshold value was calculated by an up-down method using a von Frey filament (manufactured by North Coast Medical Inc.) according to the methods of Chaplan, et al. (J. Neurosci. Method, vol. 53, pages 55 to 63, 1994) and by Lee, et al. (J. Neurophysiol., vol. 81, pages 2226 to 2233, 1999) and measurement of allodynia was conducted. Before injury of spinal nerve, the 50% reaction threshold value was measured twice and the animals where the threshold value was outside the standard were excluded from the operation for spinal nerve injury. […] Those test animals were made into groups of seven animals so that the mean value of 50% reaction threshold after 28 days from the nerve injury as an index became nearly the same in each group.
# The carboxylic acid type of the compounds of the present invention as a test substance was intraperitoneally administered in a single dose while, a 0.5% CMC-Na/physiological saline solution was administered similarly to a nerve injury control group. After 30 minutes from the administration of the test substance, allodynia was measured to calculate a 50% reaction threshold value. With regard to a significance test, Paired t-test was conducted for comparison between before and after the nerve injury and Dunnett's multiple comparison test was used for comparison among multiple groups of the nerve injury control group and the test substance administration group.
# According to the same manner as in the above Test for Analgesic Effect (2), each of Compound 12 of the present invention (3 mg/kg, 10 mg/kg) and Carboxylic acid substance A of the compound of the present invention (10 mg/kg) was orally administered in a single dose as the test substance to Chung model rats. Allodynia after 0, 15, 30, 60 and 120 minutes from the administration was measured for each of the test substance administration group and the nerve injury control group whereupon a 50% reaction threshold value was calculated.
# [4] = parameters: species or system cynomolgus monkeys; conditions: cynomolgus monkey, in vivo, 30 mg/kg
# Experimental: Each of the compound of the present invention and Carboxylic acid type A thereof dissolved or suspended in a hydrochloric acid solution was diluted with water. […] At the stages of before the administration and of 0.25, 0.5, 1, 2, 4, 8 and 24 hour(s) after the administration, the blood was collected from femoral vein using a syringe to which heparin was added followed by subjecting to centrifugation to collect the plasma. Collection of the blood was conducted for three times in total where one collection was done with each blank term of six days for each test substance. Concentration of Carboxylic acid type A in each of the collected plasma samples was quantified by an LC-MS and Cmax (maximum drug concentration in plasma) and AUC (area under blood concentration time curve; 0 to ∞ hour(s)) of the compound of the present invention and Carboxylic acid type A thereof were calculated.
# [5] = tested on: mice; experiment: Test for analgesic effect (4): acetic acid writhing test; assay type: in vivo; conditions: oral single dose; 0.7% acetic acid i.p. 25 minutes after; writhing numbers during 10 minutes
# Experimental: The compounds of the present invention or the carboxylic acid type thereof were orally administered to mice and a test for an analgesic effect was carried out by means of an acetic acid writhing test. As to the test animals, male mice of ddY strain of four weeks age were subjected to a preliminary breeding and they were used where one group comprised ten mice. Each of the compound of the present invention or the carboxylic acid type thereof as a test substance was orally administered in a single dose while, to a control group, distilled water (water for injection) was administered similarly. After 25 minutes from the administration of the test substance, a 0.7% acetic acid/physiological saline was intraperitoneally administered at the dose of 10 mL/kg. From 5 minutes thereafter, writhing numbers during 10 minutes were counted and a suppressive rate for each mouse was calculated according to the following formula. Suppressive Rate (%)=[(Mean writhing numbers of the control group)−(Writhing numbers of each mouse)]÷[Mean writhing numbers of the control group]×100
"AUC ([1]; rat, in vivo, po, 10 mg/kg) [ng·h/mL]","Cmax ([1]; rat, in vivo, po, 10 mg/kg) [ng/mL]",Structure (SMILES),further results
3750.7,2671.7,"C=CC(=O)N[C@@H](Cc1cncn1C)C(=O)OCc1ccc(C)cc1 [Compound 9, N^α-acryloyl-N^π-methyl-L-histidine 4-methylbenzyl ester]",–
3747.0,2579.9,"C=CC(=O)N[C@@H](Cc1cncn1C)C(=O)OCc1ccc(Cl)cc1 [Compound 10, N^α-acryloyl-N^π-methyl-L-histidine 4-chlorobenzyl ester]",–
2027.6,1623.9,"C=CC(=O)N[C@@H](Cc1cncn1C)C(=O)OC [Compound 1, N^α-acryloyl-N^π-methyl-L-histidine methyl ester]",–
3468.0,2719.4,"C=CC(=O)N[C@@H](Cc1cncn1C)C(=O)OCC [Compound 2, N^α-acryloyl-N^π-methyl-L-histidine ethyl ester]",–
–,–,"NCCC(=O)N[C@@H](Cc1cnc[nH]1)C(=O)O [carnosine, β-ananyl-L-histidine, reference compound]",analgesic action ([2]; administration into the lateral ventricle): no significant analgesic action
3971.6,3111.6,"C=CC(=O)N[C@@H](Cc1cncn1C)C(=O)OCCc1ccccc1 [Compound 12, N^α-acryloyl-N^π-methyl-L-histidine phenethyl ester]","anti-allodynia action as compared with the nerve injury control group ([3]; oral single dose (Compound 12: 3 and 10 mg/kg; Carboxylic acid type A: 10 mg/kg), 15, 30 and 60 minutes after administration, FIG. 1): significant anti-allodynia action; anti-allodynia action compared with Carboxylic acid type A in the same dose ([3]; oral, 10 mg/kg): stronger anti-allodynia action; AUC [4]: 8099.0 ng·h/mL; Cmax [4]: 4088.2 ng/mL"
3620.6,2391.8,"C=CC(=O)N[C@@H](Cc1cncn1C)C(=O)OCCc1ccc(Cl)cc1 [Compound 15, N^α-acryloyl-N^π-methyl-L-histidine 4-chlorophenethyl ester]",–
4234.6,2207.4,"C=CC(=O)N[C@@H](Cc1cncn1C)C(=O)OCc1ccc(C(C)(C)C)cc1 [Compound 11, N^α-acryloyl-N^π-methyl-L-histidine 4-tert-butylbenzyl ester]",–
3264.2,2761.6,"C=CC(=O)N[C@@H](Cc1cncn1C)C(=O)OCCC(C)(C)C [Compound 5, N^α-acryloyl-N^π-methyl-L-histidine 3,3-dimethylbutyl ester]",–
–,–,"C=CC(=O)N[C@@H](Cc1cncn1C)C(=O)OCCc1ccc(C)cc1 [Compound 14, N^α-acryloyl-N^π-methyl-L-histidine 4-methylphenethyl ester]",AUC [4]: 5133.2 ng·h/mL; Cmax [4]: 779.2 ng/mL
4058.3,3163.4,"C=CC(=O)N[C@@H](Cc1cncn1C)C(=O)OCCc1ccc(OC)cc1 [Compound 13, N^α-acryloyl-N^π-methyl-L-histidine 4-methoxyphenethyl ester]",–
3601.8,2562.7,"C=CC(=O)N[C@@H](Cc1cncn1C)C(=O)OCCc1ccc(C(C)(C)C)cc1 [Compound 16, N^α-acryloyl-N^π-methyl-L-histidine 4-tert-butylphenethyl ester]",–
–,–,"CC=CC(=O)N[C@@H](Cc1cncn1C)C(=O)O [Carboxylic acid type B, N^α-crotonoyl-N^π-methyl-L-histidine]",Analgesic coefficient [2]: 1.23
–,–,"CCn1cncc1C[C@H](NC(=O)C=Cc1ccccc1)C(=O)O [Carboxylic acid type C, N^α-3-phenylpropenoyl-N^π-ethyl-L-histidine]",Analgesic coefficient [2]: 1.14; Suppressive Rate (%) [5]: 27.7%
2704.9,2044.3,"C=CC(=O)N[C@@H](Cc1cncn1C)C(=O)OC(C)OC(=O)OC1CCCCC1 (stereo partly drawn) [Compound 17, N^α-acryloyl-N^π-methyl-L-histidine 1-(cyclohexyloxycarbonyloxy)ethyl ester]",–
–,–,"CC(C)=CC(=O)N[C@@H](Cc1cncn1C)C(=O)O [Carboxylic acid type E, N^α-3-metylcrotonoyl-N^π-methyl-L-histidine]",Suppressive Rate (%) [5]: 17.8%
2774.6,2407.2,"C=CC(=O)N[C@@H](Cc1cncn1C)C(=O)OCCCC [Compound 6, N^α-acryloyl-N^π-methyl-L-histidine butyl ester]",–
–,–,"Cl.Cn1cncc1C[C@H](NC(=O)C=Cc1ccccc1O)C(=O)OCCc1ccccc1 [Compound 26, N^α-[3-(2-hydroxyphenyl)acryloyl]-N^π-methyl-L-histidine phenethyl ester hydrochloride]",Suppressive Rate (%) [5]: 23.8%
2614.2,1495.3,"C=CC(=O)N[C@@H](Cc1cncn1C)C(=O)OC(c1ccccc1)c1ccccc1 [Compound 24, N^α-acryloyl-N^π-methyl-L-histidine diphenylmethyl ester]",–
2641.8,2144.0,"C=CC(=O)N[C@@H](Cc1cncn1C)C(=O)OCCC(C)C [Compound 4, N^α-acryloyl-N^π-methyl-L-histidine isopentyl ester]",–
–,–,"C=CC(=O)N[C@@H](Cc1cncn1Cc1ccccc1)C(=O)O [Carboxylic acid type D, N^α-acryloyl-N^π-benzyl-L-histidine]","threshold as compared with the nerve injury control group ([3]; intraperitoneal single dose): significant increase in the threshold; 50% reaction threshold value ([3]; intraperitoneally 400 μg/kg single dose, 30 minutes after administration): 7.32 g; Suppressive Rate (%) [5]: 37.9%"
–,–,"C=CC(=O)N[C@@H](Cc1cncn1C)C(=O)OCC(C)(C)C [Compound 3, N^α-acryloyl-N^π-methyl-L-histidine neopentyl ester]","AUC ([1]; rats, oral 10 mg/kg single dose, 0 to 8 hours, Carboxylic acid type A quantified in plasma, values converted to dose equimolar to Carboxylic acid type A): 2373.9 ng·h/mL; Cmax ([1]; rats, oral 10 mg/kg single dose, Carboxylic acid type A quantified in plasma, values converted to dose equimolar to Carboxylic acid type A): 2074.0 ng/mL"
